Measured values from patent publication US20080269163A1, “Methods and Compositions for Protecting Cells from Ultrasound-Mediated Cytolysis” (priority 2004, published 2008).
Entries after “also recorded” stand apart in the source; their conditions may differ.

How the values were obtained:
HL-60 cells [1] = experiment: Ultrasound-induced cytolysis of HL-60 cells, Coulter counter analysis; format: cell-based; settings: for concentration giving complete (approximately 100%) protection from ultrasound induced cytolysis / effect on ultrasound induced cytolysis (% cytolysis): 1.057 MHz (1 MHz), 10 W; for concentration giving complete (approximately 100%) protection from ultrasound induced cytolysis / effect on ultrasound induced cytolysis (% cytolysis) / effect on ultrasound induced cytolysis: 5 s; for concentration giving complete (approximately 100%) protection from ultrasound induced cytolysis: air exposed; for cells protected from immediate cytolysis: 7 mM HGP; for change of protection from cytolysis as frequency is decreased: frequency decreased from 1 MHz to 42 kHz
Procedure: Cells: HL-60 myeloid leukemia cells (American Type Culture Collection) were grown in a suspension of RPMI 1640 medium (GIBCO, Gaithersburg, Md.) containing 10% calf serum. The population of HL-60 cells doubled every 23±1 hr (hour ±SEM) when incubated at 37° C. in a CO2 (5%) containing atmosphere. Cells were harvested, re-suspended in fresh RPMI medium and kept at 25° C. until the start of the experiment (typically less than 1 hr). […] The fraction of intact cells before and after ultrasound was determined using a Coulter multisizer (model IIe) connected to a sampling stand (model IIa). The number of intact cells was determined by counting the total number of particles under the bell shaped curve (e.g., FIG. 1a) before and following sonolysis. The cytolysis percentage was determined by subtracting the number of intact cells following sonolysis from the number of intact cells before sonolysis. This value was divided by the number of intact cells before sonolysis and multiplied by 100 to obtain the cytolysis percentage value.
The temperature of the coupling water was 25° C.
We have confirmed the validity of this technique for studying the effects of sonolysis in our ultrasound system by the trypan blue exclusion assay. The mean size of HL-60 cells was determined from the Coulter counter results prior to sonolysis and was approximately 650 μm3 (FIG. 1a) which equates to a mean cell diameter of […].
42 kHz sonolysis was conducted in a similar way but using a Branson ultrasound bath (model number 1510). […] At 42 kHz, a transducer was used to decrease the power of the bath to 50% of its original value. The temperature of the coupling water at all frequencies was 25° C.
(§1) The percentage of cytolysis of HL-60 cells was determined by measurement of the cell size distribution using a Coulter multisizer. This method correlates well with percentage cytolysis measured using the Trypan blue exclusion assay immediately following sonolysis and is explained in detail elsewhere (Miyoshi, N. et al. 2003). […] This immediate ultrasound induced cytolysis (i.e., % cytolysis) is represented in FIGS. 2, 10-12 at a concentration of zero.
42 kHz sonolysis was conducted in a similar way but using a Branson ultrasound bath (model number […]). […] At 42 kHz, a transducer was used to decrease the power of the bath to 50% of its original value. The temperature of the coupling water at all frequencies was 25° C.
as §1, with “represented” for “represented in FIGS. 2, 10-12”

HL-60 cells [2] = tested on: HL-60 cells
Procedure: (§2) Cell experiments were completed within 5 to 10 minutes of adding the glucopyranosides to the cell suspensions, and each data point represents an average ±SEM, where n=5 to 8. […] For this reason, we only studied the effects of MGP, HGP, HepGP and OGP on the ultrasound induced cytolysis of HL-60 cells.

HL-60 cells [3] = experiment: Reproduction assay of HL-60 cells following sonolysis; format: cell-based; settings: for reproduction ratio one or two days post treatment: 7 mM HGP; for reproductive viability (reproduction fraction) over 24 hours after sonolysis: 5 seconds, 10 W, varying concentrations
Procedure: Cells were allowed to reproduce for 24 hours. Reproduction fraction ±SD (where n=6 to 8) is calculated by dividing the number of cells counted following 24 hours of reproduction by the number of cells counted at the start of incubation.
Control data points were run in triplicate with a standard deviation of less than 10%. Sonolysis points represent an average of six separate cell suspensions, with a standard deviation of less than 10%.
The reproduction ratio is the number of cells present one or two days post treatment divided by the number of cells present on the treatment day.
Reproduction Assay: for FIG. 5, a reproduction assay was conducted over a period of 10 days to determine the long term viability of cells following ultrasound treatment in the presence of either HGP or OGP at concentrations where 100% protection from cytolysis occurred. The long term viability of treated cell suspensions was compared to the long term viability of untreated control cell suspensions held under exactly the same conditions (FIG. 5). Immediately following sonolysis, a 100 μl aliquot of the 1 ml treated (or control) samples was used for Coulter counter analysis in order to confirm that 100% of the cells had survived the ultrasound treatment. Viability of the cells was determined by using a very small volume (approx. 20 μl) of suspension for trypan blue staining. The remaining ≈0.9 ml cell suspensions were diluted to 3 ml with fresh medium, centrifuged, washed with fresh medium, and finally re-suspended in fresh medium (2 ml). 100 μl of this new 2 ml of cells suspended in fresh medium was then used to determine the cell concentration. This cell concentration is defined as ‘the cell concentration at Day 0 after ultrasound treatment’ (Ci). Cell suspensions were then kept at 37° C. in a 5% CO2 incubator for a total of 10 days.
Over the 10 day period, cells had to be spun down occasionally and re-suspended in fresh medium to replenish the nutrients necessary for a healthy cell population. 100 μl aliquots of the original cell suspension were used to measure the cell concentration both before (Cfinal) and following (Cinitial) re-suspension in fresh medium. This procedure, although necessary, results in a slight underestimation in the expected number of cells on any given day, when compared to the original cell concentration, Ci. To account for this small, but significant underestimation, we calculated the actual number of cells that would have been observed had we not been periodically extracting small aliquots for the detection of cell numbers by the Coulter counter. This was done by calculating a ‘reproduction ratio’, determined by dividing Cfinal by Cinitial that was measured one or two days earlier and comparing this ratio to (Ci), to give a ‘real cell population’. It should be noted that this calculation is done simply as a matter of convenience and that the reproduction ability of the treated samples was compared to control samples that were treated in the same way over the day period, as shown in FIG. 5. Verification of this method is given by the fact that the cells of the control samples double approximately every day (FIG. 5), as expected for HL-60 cells under the conditions of incubation in the current study.

HL-60 cells [4] = experiment: Mechanical fragility test (Burrell wrist action shaker, glass beads), HL-60 cells; format: cell-based; settings: for protection from mechanical induced cytolysis: 30 min shaking, 50% power, HGP 1-10 mM, HepGP 0.1-10 mM, MGP 10-30 mM, OGP 0.3-3 mM
Procedure: 10 ml borosilicate glass beads in a 125 ml conical flask. 10 ml cell suspension in the presence and absence (control) of various glucopyranosides (HGP, HepGP, MGP, and OGP) in a cell culture medium containing 10% DPBS solution. Shaking was conducted over a period of 30 minutes. Each data point represents ±SD, where n=5.
Mechanical Fragility Test: the effect of glucopyranosides on the mechanical fragility of the cells was determined by inducing mechanical shear stress to a cell suspension. This involved placing 10 mL of HL-60 cells in suspension in 125 ml sized screw capped conical flasks containing 10 mL of borosilicate solid-glass beads (Sigma-Aldrich, mean particle diameter of 3 mm), similar to the methods described elsewhere (Carstensen, E. L. et al. 1993; Miller, M. W. et al. 2003). The samples were then shaken in a Burrell wrist action shaker (model number 75, Burrell Scientific, Pittsburgh, Pa.) at 50% power for a duration of 30 minutes. Using this method, up to eight sample solutions could be run at one time. […] In samples containing glucopyranosides, the surfactant was dissolved in 1 ml of DPBS and added to 9 ml of the cell suspension.

HL-60 cells [5] = experiment: Exposure of HL-60 cells to glucopyranosides alone (no ultrasound); settings: 15 minute exposure at highest concentrations used
Procedure: as §2

HL-525 cells = experiment: Sonolysis of HL-525 cells, % cytolysis; format: cell-based; settings: 1 MHz (1057 kHz), 10 W, 5 sec
Procedure: Conditions: 42 kHz, 50% power, 5 sec, 20° C., % cytolysis ±SD (n=6).
Conditions: 354 kHz, 15 W, 5 sec, 20° C., % cytolysis ±SD (n=6).
Conditions: 614 kHz, 20 W, 5 sec, 20° C., % cytolysis ±SD (n=6).
Conditions: 1057 kHz, 10 W, 5 sec, 20° C., % cytolysis ±SD (n=6).

## CCCCCCCNC(=O)OC[C@H]1O[C@H](OC)[C@H](O)[C@@H](O)[C@@H]1O [ANAMEG-7, methyl-6-O—(N-heptylcarbamoyl)-α-D-glucopyranoside]
HL-60 cells [1]; HL-60 cells
  concentration giving complete (approximately 100%) protection from ultrasound induced cytolysis: 3 mM

## OC[C@H]1O[C@@H](OCCCC2CCCCC2)[C@H](O)[C@@H](O)[C@@H]1O [Cyglu-3, 3-cyclohexyl-1-propyl-β-D-glucoside]
HL-60 cells [1]; HL-60 cells
  concentration giving complete (approximately 100%) protection from ultrasound induced cytolysis: 5 mM

## CCCCCCCCCCO[C@@H]1O[C@H](CO)[C@@H](O)[C@H](O)[C@H]1O [DGP, decyl-β-D-Glucopyranoside]
HL-60 cells [2]
  lysis of cells on exposure (Coulter counter, trypan blue): immediate lysis of a large population of cells

## CCCCCCO[C@@H]1O[C@H](CO)[C@@H](O)[C@H](O)[C@H]1O [HGP, hexyl-β-D-Glucopyranoside]
HL-60 cells [1]; 354 kHz
  cells protected from immediate cytolysis: 100%
HL-60 cells [1]; 614 kHz
  cells protected from immediate cytolysis: 100%
HL-60 cells [1]; HGP 5 mM, 1.057 MHz, 15 seconds, 30 W
  ultrasound induced cytolysis: eliminated
HL-60 cells [1]; HGP 5 mM, 1.057 MHz, extreme conditions with almost 100% cytolysis without HGP
  protection from sonolysis under a range of ultrasound intensities and exposure times: could protect cells from cytolysis even during extreme conditions of sonolysis
HL-60 cells [1]; HL-60 cells
  effect on ultrasound induced cytolysis (% cytolysis): fully protects
  change of protection from cytolysis as frequency is decreased: less effective
HL-60 cells [1]; HL-60 cells, 42 kHz, 50% power
  effect on ultrasound induced cytolysis: very small sonosensitization; also recorded: not at 42 kHz
HL-60 cells [1]; HL-60 cells, 354 kHz, 15 W
  effect on ultrasound induced cytolysis: fully protects
HL-60 cells [1]; HL-60 cells, 614 kHz, 20 W
  effect on ultrasound induced cytolysis: fully protects
HL-60 cells [3]; 354 kHz
  reproduction ratio one or two days post treatment: continue to reproduce at the same rate
HL-60 cells [3]; 614 kHz
  reproduction ratio one or two days post treatment: continue to reproduce at the same rate
HL-60 cells [3]; HGP 5 mM, 1.057 MHz, 15 seconds, 40 W and 60 W
  reproduction of treated cells over 10 days: continue to reproduce at a rate comparable to that of untreated control cells
HL-60 cells [3]
  reproductive viability (reproduction fraction) over 24 hours after sonolysis: continue to reproduce at the same rate as untreated control samples
HL-60 cells [4]
  protection from mechanical induced cytolysis: none of the glucopyranosides tested
HL-60 cells [5]
  effect on reproduction rate of the cells over 120 hours: no detrimental effect

## CCCCCCO[C@@H]1O[C@H](CO)[C@@H](O[C@H]2O[C@H](CO)[C@@H](O)[C@H](O)[C@H]2O)[C@H](O)[C@H]1O [HMP, Hexyl-β-D maltopyranoside]
HL-60 cells [1]; HL-60 cells
  concentration giving complete (approximately 100%) protection from ultrasound induced cytolysis: 1 mM

## CCCCCCCO[C@@H]1O[C@H](CO)[C@@H](O)[C@H](O)[C@H]1O [HepGP, heptyl-β-D-Glucopyranoside]
HL-60 cells [1]; HL-60 cells
  effect on ultrasound induced cytolysis (% cytolysis): fully protects
  concentration giving complete (approximately 100%) protection from ultrasound induced cytolysis: 3 mM
  change of protection from cytolysis as frequency is decreased: less effective
HL-60 cells [1]; HL-60 cells, 42 kHz, 50% power
  effect on ultrasound induced cytolysis: very small sonosensitization
HL-60 cells [1]; HL-60 cells, 614 kHz, 20 W
  effect on ultrasound induced cytolysis: fully protects
HL-60 cells [3]
  reproductive viability (reproduction fraction) over 24 hours after sonolysis: continue to reproduce at the same rate as untreated control samples
HL-60 cells [4]
  protection from mechanical induced cytolysis: none of the glucopyranosides tested
HL-60 cells [4]; relatively high concentrations
  effect on cell membrane stability to mechanical shear stress: significant destabilization of the cell membrane to mechanical shear stress
HL-60 cells [5]
  effect on reproduction rate of the cells over 120 hours: no detrimental effect

## CO[C@@H]1O[C@H](CO)[C@@H](O)[C@H](O)[C@H]1O [MGP, Methyl-β-D-Glucopyranoside, reference compound]
HL-60 cells [1]; HL-60 cells
  effect on ultrasound induced cytolysis (% cytolysis): no effect
HL-60 cells [1]; HL-60 cells, 42 kHz to 1 MHz, MGP 10 to 30 mM
  effect on ultrasound induced cytolysis at any ultrasound frequency: effectively has no effect
HL-60 cells [4]
  protection from mechanical induced cytolysis: none of the glucopyranosides tested
HL-525 cells
  protective effect for HL-525 cells compared to HL-60 cells: different protection effects
HL-60 cells [5]
  effect on reproduction rate of the cells over 120 hours: no detrimental effect

## CCCCCCCCO[C@H]1O[C@H](CO)[C@@H](O)[C@H](O)[C@H]1O [alphaOGP, n-octyl-α-D-glucopyranoside]
HL-60 cells [1]; HL-60 cells
  effect on ultrasound induced cytolysis (% cytolysis): very slight protective effect
